# Data: US7977282B2, “Chemical amendments for the stimulation of biogenic gas generation in deposits of carbonaceous material” (Luca Technologies, Inc., priority 2006, dated 2011)
# Entries after “also recorded” stand apart in the source; their conditions may differ.
# Key:
# [1] = system: microorganisms present in the sample (Monarch coal seam coal and formation water); experiment: Biogenic methane generation from Monarch coal samples with hydrogen, phosphorous compound and ammonia amendments; conditions: different coal and formation water sample; no ammonium and phosphate amendment
# Protocol: Experiments were conducted to compare biogenic methane generation from coal samples after introducing an amendment of hydrogen gas, a phosphorous compound, and ammonia. For each experiment, methane generation from coal samples from the Monarch coal seam in the Powder River Basin in Wyoming was periodically measured over the course of about 627 days. Each anaerobic 5 gram coal sample was placed in a nominal 36.5 ml serum bottle with 15 mL of anaerobic water that was also taken from the formation. The coal and formation water were placed in the serum bottle while working in an anaerobic glove bag. The headspace in the bottle above the sample was flushed with a mixture of N2 and CO2 (95/5).
# The methane levels in the headspace above the samples was periodically measured and recorded. The methane was measured by running samples of the headspace gases through a gas chromatograph equipped with a thermal conductivity detector.
# [2] = system: microorganism consortia in coal samples
# From the text: Rollover is a condition where the rate of biogenic methane production starts to plateau as the in situ methane concentration reaches a certain level. In many instances, the rate flattens to zero, and the methane concentration remains constant over time. The rollover point (i.e., the point where the methane concentration begins to break from a monotonically increasing state) can vary between microorganism consortia, but appears to be reached in almost all unamended samples of carbonaceous material that have been examined to date.
# [3] = system: methanogenesis in Powder River Basin coal and formation water; experiment: Single and multiple nutrient amendments, Powder River Basin coal (FIG. 9); assay type: cell-based; conditions: phosphate 5 mg/L, yeast extract about 500 mg/L, BESA about 10 mM
# Protocol: Two comparative groups were also measured: (1) Samples of the Power River Basin coal to which no amendments were added (unamended), and (2) Samples of the PRB coal to which bromoethanesulfonic acid (BESA), a known methanogen-specific inhibitor, was added.
# The headspace in the bottle above the sample was exchanged with helium.
# The amendments were added to the sample bottles until a target concentration of the amendment was reached. […] For the yeast extract only amended, Difco® yeast extract from Becton Dickinson and Company was added to the sample bottles until a concentration of about 500 mg/L was reached.
# Finally, for the samples used in the comparative example where methane production from methanogenesis was inhibited, BESA was added to the sample bottles until it reached a concentration of about 10 mM.
# Methane production from the samples were measured and plotted as the percentage of methane in the headspace above the liquid in the serum bottle. Three sample bottles were prepared for each amendment, and the methane concentrations were measured in triplicate and averaged.
# [4] = system: coal formation in Wyoming's Powder River Basin
# Protocol: FIGS. 14A-B show graphs of measurements of methane gas production over time from a coal formation in Wyoming's Powder River Basin before and after an amendment of phosphate and filtered water was introduced to the formation.
# The gas well was then treated with an amendment of phosphate and filtered water for about 1.2 months (i.e., late August to early October). The amendment included the introduction of an aqueous solution of 9.5×10^−5 M potassium phosphate to an underground natural gas formation at a rate of about 14,400 L/day for each day of the treatment period. Following the treatment period with the phosphorous amendment, the gas well was sealed for a period of about 2 months (i.e., early October to early December) before the measurements of gas were measured during the post-amendment period (the dwell period).
# Then the same phosphorous amendment as described for FIG. 14A was added to the formation for a 1.2 month period (i.e., late August to early October) followed by an approximately 2 month dwell period.
# [5] = system: microorganisms in Monarch coal, formation water and cell concentrate; conditions: 18.0 mM acetate
# Protocol: Experiments were conducted to measure the effects of acetate amendments on methane production from samples of carbonaceous materials. The carbonaceous materials used in these experiments were coal samples taken from underground coal beds at the Monarch coal site. […] The cell concentrate consisted of cells from about 6.6 L of formation water added to 15 mL of formation water.
# In a first set of samples, the acetate amendment included adding an aqueous sodium acetate solution to the sample bottles to give the samples an 18.0 mM acetate concentration (an average measured concentration). A second set of control samples were prepared in the same manner except for lacking the acetate amendment. Methane levels (measured as a mol. % methane in the headspace of the sample bottle) were periodically measured in both the amendment and control samples over the course of 90 days.
# [6] = system: methanogenesis in produced water and oil; experiment: Phosphorous compound amendments in oil samples, field in Texas (FIG. 10); assay type: cell-based; conditions: 45° C., 14 days, oil from Texas field
# Protocol: Produced water and oil samples were collected directly from well heads after passing produced fluids through a portable anaerobic and disinfected oil-water separator. Strict anoxic techniques were used. The water samples were maintained at field temperature prior to use in experiments. Twenty mls of produced water and 0.1 ml of oil were distributed into sterile 36.5 ml serum bottles contained within a disinfected anaerobic glove bag. The anaerobic glove bag contained a filtration apparatus for removing airborne microbial contaminants. […] Incubation temperature was 45° C., the approximate in-situ temperature. Incubation period prior to headspace gas analysis was 14 days. The samples were prepared with the following amendments: […] Final bottle concentration −0.5 mg/L as Phosphorous; (2) Minerals (100× less the stock concentration in Table 2); (3) Metals (300× less the stock concentration in Table 1); (4) Minerals+Metals+Yeast extract (25 mg/L); (5) Minerals+Metals+Vitamins (100× less the stock concentration in appendix 1)+Yeast extract (25 mg/L). In addition, two comparative experiments were run for: […] The experimental bottles were placed into a heated water bath maintained at the field temperature during gas analysis to avoid temperature fluctuations. […] The methane measurements, expressed as the percentage of methane in the headspace above the sample bottles, were plotted in FIG. 10.
# [7] = system: methanogenesis and acetate production in produced water and oil; experiment: Phosphorous compound amendments in oil samples, field in Montana (FIGS. 11A-B); assay type: cell-based; conditions: oil from Montana field
# Protocol: Produced water and oil samples were collected directly from well heads after passing produced fluids through a portable anaerobic and disinfected oil-water separator. Strict anoxic techniques were used. The water samples were maintained at field temperature prior to use in experiments.
# Twenty mls of produced water and 0.1 ml of oil were distributed into sterile 36.5 ml serum bottles contained within a disinfected anaerobic glove bag. The anaerobic glove bag contained a filtration apparatus for removing airborne microbial contaminants. […] Incubation temperature was 45° C., the approximate in-situ temperature. Incubation period prior to headspace gas analysis was 14 days. The samples were prepared with the following amendments: (1) Sodium phosphate. Final bottle concentration −0.5 mg/L as Phosphorous; (2) Minerals (100× less the stock concentration in Table 2); (3) Metals (300× less the stock concentration in Table 1); (4) Minerals+Metals+Yeast extract (25 mg/L); (5) Minerals+Metals+Vitamins (100× less the stock concentration in appendix 1)+Yeast extract (25 mg/L). […]
# The experimental bottles were placed into a heated water bath maintained at the field temperature during gas analysis to avoid temperature fluctuations. […] The methane measurements, expressed as the percentage of methane in the headspace above the sample bottles, were plotted in FIG. 10. […]
# methanogenic consortia = experiment: Enrichment transfer of methanogenic consortia on coal (FIG. 13); assay type: cell-based
# Protocol: With the discovery that methanogenic consortia are commonly present in formation waters, a significant research effort, both laboratory and field oriented, was directed at identify methodologies for enhancing their activities in-situ. To this end, methanogenic consortia capable of rapid methanogenesis on coal from the Powder River Basin have been obtained using an enrichment procedure wherein a small volume of an active consortium is added to a “sterile” slurry bottle (in this case, autoclaved Tongue River coal and filter sterilized Tongue River formation water). The consortium is allowed to grow and metabolize, then the dilution series is repeated. This enrichment procedure appears to favor the growth of microorganisms more capable of metabolizing coal to methane. […] Very rapid methanogenesis was observed after the second transfer with rates 57 times greater on average relative to the parent samples (leftmost bars). The two exceptions to the trend were the last two sample sets on the far right of FIG. 13. These were cases in which methanogenesis was inhibited in the parental bottles intentionally with BESA and unintentionally in bottles that received solvent (pyridine) extracts of coal.
compound,measurement,setting,value
"[HH] [H2, hydrogen]",effect on coal metabolism to methane,[1],stimulated coal metabolism to methane
Cl.N [ammonium chloride],initial rate of methane production,"[2]; 25 mg/L nitrogen, FIG. 7",initially greater than for the unamended samples or samples with other types of amendments
same,peak methane level,"[2]; 25 mg/L nitrogen, FIG. 7",exceeded the peak plateau levels in the unamended samples
same,methane level versus unamended samples / plateau,"[2]; about day 600, FIG. 7",about the same as those measured in the unamended samples
O=P(O)(O)O [potassium phosphate],"methane production, percentage of methane in headspace",[3],rates and yields of methanogenesis were highest
same,natural gas production rate relative to baseline period,[4]; FIG. 14A,about double the average production rate during the baseline period
same,natural gas production rate following treatment and dwell periods,"[4]; FIG. 14A, 9.5×10^−5 M, about 14,400 L/day for about 1.2 months, about 2 months dwell",over 9 mcf/day
same,natural gas production rate following treatment,"[4]; FIG. 14B, declining formation",jump in the natural gas product rate
same,methane level higher than samples without phosphate,"[2]; 5 mg/L, after 600 days, FIG. 7",about 43%
same,methane level in headspace,"[2]; 5 mg/L, after 600 days, FIG. 7",about 4.3 mol. %
same,"methane concentration over time, rollover","[2]; just over 600 days, FIG. 8",no plateau was observed; also recorded: significantly higher methane levels than samples treated with a minerals amendment or the samples that were unamended
CC(=O)[O-].[Na+] [sodium acetate],activation period before methane generation,[5],about 65 days
same,methane in the headspace of the sample bottle,[5]; 90th day,over 12 mol. %
O=P(O)(O)O [sodium phosphate],"methanogenesis, percentage of methane in headspace",[6],comparable stimulation relative to more complex nutrient mixtures
same,rate of methanogenesis,[7]; FIG. 11A,highest rates of methanogenesis
same,acetate production,[7]; FIG. 11B,stimulated acetate production relative to the unamended controls
"bromoethanesulfonic acid [BESA, reference compound]","methane production, percentage of methane in headspace",[3],did not accumulate
same,"methanogenesis, percentage of methane in headspace",[6],below detection
same,methanogenesis in parental bottles,methanogenic consortia,inhibited
